The structures appear in SMILES notation. Where a name gives a salt, the structure may show the parent alone. Read-outs that look alike come from different tables or passages of the source. Marks after values point to notes of the source that are not given here.

For one series, the system named is Neisseria gonorrhoeae. Description: Antigonococcal activity, MIC by agar dilution, relative to trimethoprim. It counts as cell-based. To be noted: expressed as activity versus TMP activity, 17 strains; for Antigonococcal Activity v.N.gonorrhaeae W.S.T.A. / Antigonococcal Activity v.N.gonorrhaeae W.S.T.A. (Repeat Examination): Wellcotest Sensitivity Test Agar; for Antigonococcal Activity v.N.gonorrhaeae W.S.T.A.: Screening Examination, 24 hours incubation; for Antigonococcal Activity v.N.gonorrhaeae G.C.A.: Difco G.C. Agar; for Antigonococcal Activity v.N.gonorrhaeae W.S.T.A. (Repeat Examination): standardised inocula, 48 hours incubation. The method, then: (§1) The antigonococcal activity of 2,4-diamino-(3,5-diethyl-4-hydroxybenzyl)pyrimidine (compound 1), 2,4-diamino-(4-hydroxy-3,5-di-n-propylbenzyl)pyrimidine (compound 2), 2,4-diamino-(3-ethyl-4-hydroxy-5-n-propylbenzyl)pyrimidine (compound 3),24-diamino-(4-hydroxy-3,5-di-i-propylbenzyl)pyrimidine (compound 4) and 2,4-·diamino-·(3,5-di--t-butyl-4-hydroxybenzyl) pyrimidine (compound 5) and the antimeningococcal activity of compounds 2,3 and 4 were determined […] by the following methods. The activities were measured against 17 strains of Neisseria gonorrhoeae and 5 strains of Neisseria meningitidis in Wellcotest Sensitivity Test Agar supplemented with 5$ heated horse blood and 5% unheated lysed horse blood, In practice, 5% blood was added to 500ml quantities of the medium at 56°C and, after being placed in a 80°C water bath for 15 minutes and then cooled to 56°C, the lysed blood and the test compounds were added. The medium was then immediately poured into plates. The test compounds were dissolved as the isothionates.
(§2) In the Screening Examination, which consisted of 6 separate tests, the minimum inhibitory concentrations (MIC's) were determined in one-third interval dilutions and then reexamined in one-half interval dilution.
(§3) The inoculum in the Screening Examination was from an 18-hour Mueller-Hinton heated-blood broth culture, and applied with a lmm loop which was streaked along lcm.. Because the amount of growth produced by the strains varied, the inocula was not constant in these tests, in the Repeat Examination, the inocula were standardised to give "just confluent'' growth. The MIC's were read as that concentration which produced 90% or more inhibition of growth as compared macroscopically with that of the control growth. The incubation period for the Screening Examination was 24 hours and for the Repeat Examination 48 hours.
(§4) As standards, Escherichia coli (CN 314 ) and trimethoprim (TMP) were included in each test.
(§5) Using the above method the activities of compound 5 was measured against the same 17 strains of Neisseria gonorrhoeae and 5 strains of Neisseria meningitidis in Difco G.C. Agar.

A short description of series [1]: Blood, urine and tissue concentrations in mice after oral administration (microbiological assay with Bacillus pumilus). The class given is in vivo. The conditions noted are these: 2mg/mouse P.O.; for Urine Direct (percentage in brackets): appears to be direct urine concentration as percent of that after Glusalase; for concentration at 1 h / concentration at 2 h / concentration at 4 h: po; for concentration at 1 h: 1 hour after dosing, read-out: Conc. in blood at 1HR; for concentration at 2 h: 2 hours after dosing, read-out: Conc. in blood at 2HR. The method, then: Also shown in Table 1 is the concentration of each of the compounds in the blood urine and tissues of mice after oral administration. These concent rations were determined as described hereafter. The compounds, suspended in 0.1% methylcellulose, were administered by stomach tube to groups of 3 mice, the dose was 2.0mg per 20g mouse and blood was collected from the orbital sinus at 1, 2 and 4 hours after the dosing. Urine was collected directly from each animal at the 4th hour, after which the animals were killed. Liver, lung, brain and muscle was taken from each animal and homogenised in an equal volume (w/v) of water in a Polytron Homogenizer. The suspensions were taken to be 1:2 extracts of the tissues.
The concentrations of the drugs were determined microbiologically, using Bacillus pumilus, those in the urine determined both before and after 18 hours incubation with Glusalase (gluecuronidase and sulfatase).

Series [2] is described as follows: Acute oral toxicity in rats. The conditions noted are these: rat, in vivo.
Series [3] is described as follows: Acute oral toxicity in mice. The conditions noted are these: mouse, in vivo.
The subject of another series is Neisseria meningitidis. Description: Antimeningococcal activity, MIC by agar dilution, relative to trimethoprim. The class given is cell-based. The conditions noted are these: expressed as activity versus TMP activity; 5 strains. As for the experimental part:
as §1, §2, §3, §4, §5

Series [4] concerns Escherichia coli (CN 314 ). Description: Activity against standard organism E. coli, MIC by agar dilution, relative to trimethoprim. The conditions noted are these: expressed as activity versus TMP activity. The class given is cell-based. The method, then:
The medium was then immediately poured into plates. The test compounds were dissolved as the isothionates. […] Because the amount of growth produced by the strains varied, the inocula was not constant in these tests, in the Repeat Examination, the inocula were standardised to give "just confluent'' growth. The MIC's were read as that concentration which produced 90% or more inhibition of growth as compared macroscopically with that of the control growth. The incubation period for the Screening Examination was 24 hours and for the Repeat Examination 48 hours. As standards, Escherichia coli (CN 314 ) and trimethoprim (TMP) were included in each test.

Setting [5] is: blood, 4 hours after dosing, read-out: Conc. in blood at 4HR.
Setting [6] is: brain, 4 hours, tissue homogenate, read-out: Concentration at 4HRS in: Brain.
The mark [7] stands for this setting: liver, 4 hours, tissue homogenate, read-out: Concentration at 4HRS in: Liver.
Where [8] appears, read: lung, 4 hours, tissue homogenate, read-out: Concentration at 4HRS in: Lung.
Where [9] appears, read: muscle, 4 hours, tissue homogenate, read-out: Concentration at 4HRS in: Muscle.
The mark [10] stands for this setting: 4 hours, urine after 18 hours incubation with Glusalase (glucuronidase and sulfatase), read-out: Concentration at 4HRS in: Urine After glacolase.
Where [11] appears, read: 4 hours, urine before incubation with Glusalase, read-out: Concentration at 4HRS in: Urine Direct.

On to `CCc1cc(Cc2cnc(N)nc2N)cc(CC)c1O` [COMPOUND 1, 2,4-diamino-(3,5-diethyl-4-hydroxybenzyl)pyrimidine], for which, in the series with Neisseria gonorrhoeae, the “Antigonococcal Activity v.N.gonorrhaeae W.S.T.A.” value is 7. The “Urine Direct (percentage in brackets)” value in series [1] (4 hours) was 7%. In addition, the concentration at 1 h in series [1] (blood) stood at 1.11 µg/mL. In addition, the concentration at 2 h in series [1] (blood) amounted to 0.41 µg/mL. For the same compound, the concentration at 4 h in series [1] (setting [5]) is 0.4 µg/mL; in series [1] (setting [6]) it was 0.34 µg/mL; in series [1] (setting [7]), 1.94 µg/mL; in series [1] (setting [8]), 1.75 µg/mL; in series [1] (setting [9]), less than 0.03 µg/mL; in series [1] (setting [10]), 790 µg/mL. The concentration at 4 h in series [1] (setting [11]) came to 56 µg/mL.
`CC(C)c1cc(Cc2cnc(N)nc2N)cc(C(C)C)c1O` [2,4-diamino-5-(3,5-diisopropyl-4-hvdroxyberzyl) pyrimidine lactate salt]: the LD50 in series [2] is more than 100 mg/kg; in series [3] (female mice, read-out: LD50 (mice) female) it was 2890 mg/kg; in series [3] (male mice, read-out: LD50 (mice) male), 2830 mg/kg.
For the compound `CC(C)(C)c1cc(Cc2cnc(N)nc2N)cc(C(C)(C)C)c1O` [COMPOUND 5, 2,4-·diamino-·(3,5-di--t-butyl-4-hydroxybenzyl) pyrimidine], the “Antigonococcal Activity v.N.gonorrhaeae G.C.A.” value with Neisseria gonorrhoeae was 7. In addition, the “Urine Direct (percentage in brackets)” value in series [1] (4 hours) is on record as 42%. Further, in series [1] (blood), the concentration at 1 h was found to be 4.25 µg/mL. Besides, in series [1] (blood), the concentration at 2 h came to 4 µg/mL. Moreover, the concentration at 4 h in series [1] (setting [5]) is 3 µg/mL; in series [1] (setting [6]), 4.4 µg/mL; in series [1] (setting [7]), 6 µg/mL; in series [1] (setting [8]) it was 11.2 µg/mL; in series [1] (setting [9]) it was less than 0.26 µg/mL; in series [1] (setting [10]), 240 µg/mL. For the same compound, the concentration at 4 h in series [1] (setting [11]) is 100 µg/mL.
With `CCCc1cc(Cc2cnc(N)nc2N)cc(CC)c1O` [COMPOUND 3, 2,4-diamino-(3-ethyl-4-hydroxy-5-n-propylbenzyl)pyrimidine], the “Antigonococcal Activity v.N.gonorrhaeae W.S.T.A. (Repeat Examination)” value in the series on Neisseria gonorrhoeae is recorded as 18^**. Besides, in the series with Neisseria gonorrhoeae, the “Antigonococcal Activity v.N.gonorrhaeae W.S.T.A.” value turned out to be 21. In addition, the “Antigonococcal Activity v.N.meningitidis” value with Neisseria meningitidis is recorded as 7. For the same compound, the “Antigonococcal Activity v.E.coli (CN314)” value in series [4] is more than 0.1. In series [1] (4 hours), the “Urine Direct (percentage in brackets)” value was 2.2%. In addition, the concentration at 1 h in series [1] (blood) was determined as 0.88 µg/mL. Besides, the concentration at 2 h in series [1] (blood) came to 0.9 µg/mL. In addition, the concentration at 4 h in series [1] (setting [5]) worked out at 0.8 µg/mL; in series [1] (setting [6]) it was 0.44 µg/mL; in series [1] (setting [7]), 5 µg/mL; in series [1] (setting [8]), 3.6 µg/mL; in series [1] (setting [9]), 0.21 µg/mL; in series [1] (setting [10]) it was 1800 µg/mL. For the same compound, the concentration at 4 h in series [1] (setting [11]) was determined as 39 µg/mL.
On to `CCCc1cc(Cc2cnc(N)nc2N)cc(CCC)c1O` [COMPOUND 2, 2,4-diamino-(4-hydroxy-3,5-di-n-propylbenzyl)pyrimidine], for which the “Antigonococcal Activity v.N.gonorrhaeae W.S.T.A. (Repeat Examination)” value in the series with Neisseria gonorrhoeae was 17^**. In the series with Neisseria gonorrhoeae, the “Antigonococcal Activity v.N.gonorrhaeae W.S.T.A.” value is reported as 21. Further, the “Antigonococcal Activity v.N.meningitidis” value in the series on Neisseria meningitidis is reported as 11. For the same compound, the “Antigonococcal Activity v.E.coli (CN314)” value in series [4] is recorded as 0.03. Moreover, in series [1] (4 hours), the “Urine Direct (percentage in brackets)” value was found to be 2.5%. Further, the concentration at 1 h in series [1] (blood) was found to be 1.36 µg/mL. The concentration at 2 h in series [1] (blood) worked out at 0.5 µg/mL. The concentration at 4 h in series [1] (setting [5]) is 0.44 µg/mL; in series [1] (setting [6]), 0.5 µg/mL; in series [1] (setting [7]), 3.75 µg/mL; in series [1] (setting [8]) it was 1.8 µg/mL; in series [1] (setting [9]), less than 0.03 µg/mL; in series [1] (setting [10]), 650 µg/mL. For the same compound, in series [1] (setting [11]), the concentration at 4 h came to 16 µg/mL.
As for `CC(C)c1cc(Cc2cnc(N)nc2N)cc(C(C)C)c1O` [COMPOUND 4, 24-diamino-(4-hydroxy-3,5-di-i-propylbenzyl)pyrimidine], the “Antigonococcal Activity v.N.gonorrhaeae G.C.A.” value in the series on Neisseria gonorrhoeae is given as 13. In addition, the “Antigonococcal Activity v.N.gonorrhaeae W.S.T.A. (Repeat Examination)” value in the series with Neisseria gonorrhoeae was 17^**. Also, in the series on Neisseria gonorrhoeae, the “Antigonococcal Activity v.N.gonorrhaeae W.S.T.A.” value is given as 18. Further, the “Antigonococcal Activity v.N.meningitidis” value with Neisseria meningitidis is given as 7. The “Antigonococcal Activity v.E.coli (CN314)” value in series [4] is recorded as 0.03. Besides, the “Urine Direct (percentage in brackets)” value in series [1] (4 hours) is recorded as 50%. The concentration at 1 h in series [1] (blood) was determined as 1.38 µg/mL. The concentration at 2 h in series [1] (blood) is 1.08 µg/mL. Further, the concentration at 4 h in series [1] (setting [5]) is 0.65 µg/mL; in series [1] (setting [6]), 0.46 µg/mL; in series [1] (setting [7]), 8.3 µg/mL; in series [1] (setting [8]), 2.6 µg/mL; in series [1] (setting [9]), less than 0.03 µg/mL; in series [1] (setting [10]), 190 µg/mL. Also, the concentration at 4 h in series [1] (setting [11]) is 95 µg/mL.
Turning to `COc1cc(Cc2cnc(N)nc2N)cc(OC)c1OC` [TMP, 2,4-diamino-5-(3,4,5-trimethoxybenzyl)pyrimidine, reference compound], in the series with Neisseria gonorrhoeae, the “Antigonococcal Activity v.N.gonorrhaeae G.C.A.” value turned out to be 1. In addition, the “Antigonococcal Activity v.N.gonorrhaeae W.S.T.A. (Repeat Examination)” value with Neisseria gonorrhoeae is reported as 1. Besides, the “Antigonococcal Activity v.N.gonorrhaeae W.S.T.A.” value in the series with Neisseria gonorrhoeae is on record as 1. Also, the “Antigonococcal Activity v.N.meningitidis” value in the series on Neisseria meningitidis came out at 1. Besides, the “Antigonococcal Activity v.E.coli (CN314)” value in series [4] was found to be 1. The “Urine Direct (percentage in brackets)” value in series [1] (4 hours) is 50%. Also, the concentration at 1 h in series [1] (blood) came out at 2.15 µg/mL. For the same compound, the concentration at 2 h in series [1] (blood) came out at 0.28 µg/mL. Also, the concentration at 4 h in series [1] (setting [5]) was less than 0.02 µg/mL; in series [1] (setting [6]) it was less than 0.04 µg/mL; in series [1] (setting [7]) it was 1.08 µg/mL; in series [1] (setting [9]), less than 0.04 µg/mL; in series [1] (setting [10]), 400 µg/mL; in series [1] (setting [11]) it was 200 µg/mL.

The record behind these values is patent EP0006987A1, “2,4-Diamino-5-benzylpyrimidines, especially for the treatment of microbial infections, pharmaceutical compositions containing these compounds and processes for preparing these compounds” (THE WELLCOME FOUNDATION LIMITED, priority 1978, dated 1980).
